For the assay, the system named is L1210 leukemia ip in BDF1 mice, survival T/C. The assay can be described thus: NCI In Vivo Anticancer Drug Screen. Data for tumor model L1210 Leukemia (intraperitoneal) in B6D2F1 (BDF1) mice. As to conditions: endpoint: mean survival time, higher = longer survival. Summed up: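 Value reflects the ratio of survival in compound-treated mice to survival in vehicle-treated controls, with both groups carrying the same transplanted tumor.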

Where [1] appears, read: dose: 100.0 mg/kg/injection, schedule: Q04DX002 (ip), vehicle: Klucel (hydroxypropylcellulose) (HPC).
[2] abbreviates: dose: 200.0 mg/kg/injection, schedule: Q04DX002 (ip), vehicle: Klucel (hydroxypropylcellulose) (HPC).
Where [3] appears, read: dose: 400.0 mg/kg/injection, schedule: Q04DX002 (ip), vehicle: Klucel (hydroxypropylcellulose) (HPC).
Where [4] appears, read: dose: 100.0 mg/kg/injection, schedule: Q01DX001 (ip), vehicle: other.
Where [5] appears, read: dose: 200.0 mg/kg/injection, schedule: Q01DX001 (ip), vehicle: other.
The mark [6] stands for this setting: dose: 100.0 mg/kg/injection, schedule: Q04DX003 (ip), vehicle: saline.
[7] abbreviates: dose: 200.0 mg/kg/injection, schedule: Q04DX003 (ip), vehicle: saline.
Where [8] appears, read: dose: 400.0 mg/kg/injection, schedule: Q04DX003 (ip), vehicle: saline.
The mark [9] stands for this setting: dose: 100.0 mg/kg/injection, schedule: Q01DX009 (ip), vehicle: Klucel (hydroxypropylcellulose) (HPC).
The mark [10] stands for this setting: dose: 100.0 mg/kg/injection, schedule: Q04DX003 (ip), vehicle: Klucel (hydroxypropylcellulose) (HPC).
Setting [11] is: dose: 200.0 mg/kg/injection, schedule: Q01DX009 (ip), vehicle: Klucel (hydroxypropylcellulose) (HPC).
[12] abbreviates: dose: 200.0 mg/kg/injection, schedule: Q04DX003 (ip), vehicle: Klucel (hydroxypropylcellulose) (HPC).
Setting [13] is: dose: 400.0 mg/kg/injection, schedule: Q01DX009 (ip), vehicle: Klucel (hydroxypropylcellulose) (HPC).
The mark [14] stands for this setting: dose: 400.0 mg/kg/injection, schedule: Q04DX003 (ip), vehicle: Klucel (hydroxypropylcellulose) (HPC).

The record followed here is PubChem BioAssay AID248 (DTP/NCI, 2004).

“And” between values parts separate entries of the source, which are not always exact repeats. Identical values can stand only once. Toxic doses and inconclusive results are not listed.

In the case of `Cc1ccc(NCC2(/N=C/c3ccccc3)OC(CO)C(O)C2O)cc1` (stereo not drawn), the T/C was 97 % of control under setting [1], 102 % of control under setting [2] and 102 % of control under setting [3].
For the compound `Fc1ccc(NC2(c3nnnn3C3CCCCC3)CCNCC2)cc1`, the T/C by setting is: (dose: 6.25 mg/kg/injection, schedule: Q01DX001 (ip), vehicle: saline with Tween-80) 102 % of control; (dose: 12.5 mg/kg/injection, schedule: Q01DX001 (ip), vehicle: saline with Tween-80) 100 % of control; (dose: 25.0 mg/kg/injection, schedule: Q01DX001 (ip), vehicle: saline with Tween-80) 98 % of control.
Turning to `c1ccc(N2CN(c3ccccc3)N(c3ccccc3)CN2c2ccccc2)cc1`, the T/C is 92 % of control under setting [4] and 89 % of control under setting [5].
`S=C(c1ccccc1)N1CCOCC1`: the T/C runs as follows: under setting [1], 100 % of control; under setting [2], 111 % of control; under setting [3], 96 % of control.
Turning to `CN(C)c1ccc(C(=O)O)cn1`, the T/C (dose: 100.0 mg/kg/injection, schedule: Q01DX009 (ip), vehicle: saline with Tween-80) is 96 % of control; the T/C under setting [6] was 100 % of control; the T/C (dose: 200.0 mg/kg/injection, schedule: Q01DX009 (ip), vehicle: saline with Tween-80) was 105 % of control; the T/C under setting [7] is 100 % of control; the T/C (dose: 400.0 mg/kg/injection, schedule: Q01DX009 (ip), vehicle: saline with Tween-80) is 102 % of control; the T/C under setting [8] was 100 % of control.
`O=C1NCC2CCc3c(ccc4ccccc34)N12` (stereo not drawn): the T/C runs as follows: under setting [4], 100 % of control; under setting [5], 94 % of control; (dose: 400.0 mg/kg/injection, schedule: Q01DX001 (ip), vehicle: other) 93 % of control.
Regarding `O=C(CCn1cccc1)c1csc2ccccc12`, the T/C by setting is: (dose: 10.0 mg/kg/injection, schedule: Q01DX001 (ip), vehicle: carboxymethylcellulose (CMC)) 97 % of control; (dose: 20.0 mg/kg/injection, schedule: Q01DX001 (ip), vehicle: carboxymethylcellulose (CMC)) 98 % of control; (dose: 40.0 mg/kg/injection, schedule: Q01DX001 (ip), vehicle: carboxymethylcellulose (CMC)) 100 % of control; (dose: 80.0 mg/kg/injection, schedule: Q01DX001 (ip), vehicle: carboxymethylcellulose (CMC)) 100 % of control; (dose: 200.0 mg/kg/injection, schedule: Q01DX001 (ip), vehicle: carboxymethylcellulose (CMC)) 88 % of control.
Take `O=C(Nc1ccc(Cl)c(Cl)c1)Oc1ccc(-c2ccccc2)cc1`: the T/C under setting [9] is 93 % of control; the T/C under setting [10] was 87 % of control; the T/C under setting [11] is 100 % of control; the T/C under setting [12] was 92 % of control; the T/C under setting [13] was 90 % of control; the T/C under setting [14] was 88 % of control.
On to `C=CCC(C#N)(CCN(C)C)c1cccc2ccccc12` (stereo not drawn), for which the T/C was 99 % of control under setting [9] and 111 % of control under setting [11].
On to `O=[N+]([O-])c1ccc(/C=N/Nc2c3ccccc3nc3ccccc23)cc1`, for which the T/C (dose: 400.0 mg/kg/injection, schedule: Q01DX001 (ip), vehicle: saline) is 94 % of control.
For the compound `NC1NC(=O)C(CCCOc2ccc([N+](=O)[O-])cc2)C(c2ccccc2)N1` (stereo not drawn), the T/C is, setting by setting: under setting [9], 91 % of control; under setting [11], 110 % of control; under setting [13], 89 % of control.
Take `Nc1cc(C(=O)Nc2ccc(CCNC3=NCCN3)cc2)ccc1C(=O)Nc1ccc(CCNC2=NCCN2)cc1`: the T/C was 103 % of control (dose: 0.26 mg/kg/injection, schedule: Q01DX001 (ip), vehicle: water); 101 % of control (dose: 0.4 mg/kg/injection, schedule: Q01DX001 (ip), vehicle: water); 103 % of control (dose: 0.6 mg/kg/injection, schedule: Q01DX001 (ip), vehicle: water); 101 % of control (dose: 0.93 mg/kg/injection, schedule: Q01DX001 (ip), vehicle: water); 101 % of control (dose: 0.93 mg/kg/injection, schedule: Q01DX015 (ip), vehicle: water); 119 % of control (dose: 1.87 mg/kg/injection, schedule: Q01DX015 (ip), vehicle: water). Further, the T/C (dose: 3.75 mg/kg/injection, schedule: Q01DX015 (ip), vehicle: water) is 156 % of control; the T/C (dose: 4.8 mg/kg/injection, schedule: Q01DX Z (oral), vehicle: water) was 109 % of control; the T/C (dose: 7.5 mg/kg/injection, schedule: Q01DX015 (ip), vehicle: water) is 216 % of control; the T/C (dose: 7.5 mg/kg/injection, schedule: Q01DX Z (ip), vehicle: water) was 265 % of control; the T/C (dose: 7.5 mg/kg/injection, schedule: Q01DX Z (oral), vehicle: water) is 113 % of control; the T/C (dose: 11.0 mg/kg/injection, schedule: Q01DX Z (oral), vehicle: water) is 111 % of control. The T/C is 97 % of control (dose: 15.0 mg/kg/injection, schedule: Q01DX015 (ip), vehicle: water); 104 % of control and 119 % of control (dose: 16.0 mg/kg/injection, schedule: Q01DX Z (oral), vehicle: water); 104 % of control (dose: 23.0 mg/kg/injection, schedule: Q01DX Z (oral), vehicle: water); 102 % of control (dose: 35.0 mg/kg/injection, schedule: Q01DX Z (oral), vehicle: water); 99 % of control and 115 % of control (dose: 55.0 mg/kg/injection, schedule: Q01DX Z (oral), vehicle: water); 114 % of control (dose: 85.0 mg/kg/injection, schedule: Q01DX Z (oral), vehicle: water). Besides, the T/C (dose: 125.0 mg/kg/injection, schedule: Q01DX Z (oral), vehicle: water) is 118 % of control; the T/C (dose: 190.0 mg/kg/injection, schedule: Q01DX Z (oral), vehicle: water) was 104 % of control and 113 % of control.
In the case of `CCCC(=O)Nc1ccc(N)cc1OC`, the T/C is, setting by setting: (dose: 5.0 mg/kg/injection, schedule: Q01DX009 (ip), vehicle: saline) 100 % of control; (dose: 5.0 mg/kg/injection, schedule: Q04DX003 (ip), vehicle: Klucel (hydroxypropylcellulose) (HPC)) 96 % of control; (dose: 10.0 mg/kg/injection, schedule: Q01DX009 (ip), vehicle: saline) 100 % of control; (dose: 10.0 mg/kg/injection, schedule: Q04DX003 (ip), vehicle: Klucel (hydroxypropylcellulose) (HPC)) 102 % of control; (dose: 20.0 mg/kg/injection, schedule: Q01DX009 (ip), vehicle: saline) 100 % of control; (dose: 20.0 mg/kg/injection, schedule: Q04DX003 (ip), vehicle: Klucel (hydroxypropylcellulose) (HPC)) 96 % of control.
On to `CNc1c2c(nc3ccccc13)CCCC2`, for which the T/C by setting is: (dose: 1.25 mg/kg/injection, schedule: Q01DX009 (ip), vehicle: saline with Tween-80) 93 % of control; (dose: 1.25 mg/kg/injection, schedule: Q04DX003 (ip), vehicle: saline with Tween-80) 97 % of control; (dose: 2.5 mg/kg/injection, schedule: Q01DX009 (ip), vehicle: saline with Tween-80) 91 % of control; (dose: 2.5 mg/kg/injection, schedule: Q04DX003 (ip), vehicle: saline with Tween-80) 108 % of control; (dose: 5.0 mg/kg/injection, schedule: Q01DX009 (ip), vehicle: saline with Tween-80) 89 % of control; (dose: 5.0 mg/kg/injection, schedule: Q04DX003 (ip), vehicle: saline with Tween-80) 102 % of control.
As for `COc1ccc(C(O)S(=O)(=O)O)cc1` (stereo not drawn), the T/C by setting is: under setting [6], 98 % of control; under setting [7], 100 % of control; under setting [8], 100 % of control.
`O=C1OC(c2ccccc2)CC12CCCCC2` (stereo not drawn): the T/C under setting [10] was 102 % of control, the T/C under setting [12] is 100 % of control and the T/C under setting [14] is 100 % of control.
In the case of `O=C(NC1CCCCC1)Oc1ccc(Cl)cc1Cl`, the T/C is, setting by setting: under setting [1], 93 % of control; under setting [2], 96 % of control; under setting [3], 93 % of control.
